According to patent US4510338A, “Resorcin derivatives, process for their preparation and pharmaceutical compositions containing them” (priority 1982, dated 1985):

How the values were obtained:
[1] = tested on: ethanolic narcosis; test: Ethanolic narcosis period (righting reflex); assay type: in vivo, Hann.-Wistar rats; conditions: for Ethanolic narcosis period (x ± S.E. %), related to control: 1 h before 3.5 g/kg ethanol i.p., n=10
Procedure: The change of ethanolic narcosis period was tested on Hann.-Wistar rats of both sexes weighing 160 to 180 g. each, which were fasted for 16 hours prior to treatment. Groups of ten were treated with various doses of a test compound of the formula (I), orally. One hour after treatment the rats were administered a 3.5 g./kg. dose of ethanol intraperitoneally. The narcosis period of the animals was measured from the elapse of the righting reflex until a spontaneous correction of the body position. The average of the narcosis period and the percentage difference related to the control were calculated. The control group was treated with placebo and a […]. dose of ethanol. Control narcosis period: 99.6±6.55 (x±S.E.) min.

[2] = in vivo; conditions: rat, oral, male Hann.-Wistar rats, 14 days observation, probit analysis
Procedure: The acute toxicity of the compounds according to the invention was tested on male Hann.-Wistar rats each weighing 160 to 180 g. The animals were treated with various doses of the test compounds orally, and the dose resulting in the perish of 50% of the animals was calculated by probite analysis from the %-age of the perished animals.

[3] = tested on: ethanolic locomotor activity; test: Locomotor activity change by ethanol (Animex BSE motimeter); assay type: in vivo, BALB/c mice; conditions: n=15
Procedure: The change of ethanolic locomotor activity was tested on BALB/c mice of both sexes, weighing 16 to 18 g. each. Groups of 15 were treated with a 40 mg./kg. oral dose of the test compound 60 minutes prior to the administration of placebo and 2 g./kg. ethanol, respectively (i.p.).
The control animals were treated with placebo. The locomotor activity of the animals was measured for two hours with an Animex BSE motimeter.

[4] = tested on: ataxia induced by ethanol; test: Ataxia induced by ethanol, rotarod test; assay type: in vivo, BALB/c mice
Procedure: Previously trained and selected BALB/c mice weighing 16 to 18 g. each were treated with a 40 mg./kg. dose of the compound to be tested orally, one hour before the intraperitoneal administration of a 2.5 g./kg. dose of ethanol. The number of the animals remaining on the rods 60, 90 and 120 minutes, resp., after treatment with ethanol was determined. The animals having an intact coordination could stay at the rod as long as 120 minutes. The test was carried out on groups of ten.

[5] = tested on: alcoholic intoxication, narcosis; conditions: Sprince et al. 1974; Nagasawa et al. 1975; cited from earlier work
[6] = tested on: ethanolic locomotoric hyperactivity; conditions: mice, Carlsson et al. 1972, cited from earlier work

CCC(O)(c1cccc(C(F)(F)F)c1)c1ccc(O)cc1O (stereo not drawn) [A, 4-[1-(3-trifluoromethylphenyl)-1-hydroxypropyl]-resorcin]
Ethanolic narcosis period (x ± S.E. %), related to control ([1]; 0.3 mg/kg orally): 70 ± 11.4% | Ethanolic narcosis period (x ± S.E. %), related to control ([1]; 1.0 mg/kg orally): 60 ± 9.2% | Ethanolic narcosis period (x ± S.E. %), related to control ([1]; 5.0 mg/kg orally): 36 ± 4.0% | Ethanolic narcosis period (x ± S.E. %), related to control ([1]; 20.0 mg/kg orally): 30 ± 5.5% | LD50 at 336 h [2]: 1250 mg/kg | Total locomotor motion/2 hours in % of the control ([3]; 40 mg/kg oral + placebo (no ethanol)): 110 ± 10.3% | Total locomotor motion/2 hours in % of the control ([3]; 40 mg/kg oral, 60 min before 2000 mg/kg ethanol i.p.): 98 ± 9.5% | Animals remaining on the rotating rod (%) ([4]; 40 mg/kg oral + 2500 mg/kg ethanol i.p., 60 min): 40% | Animals remaining on the rotating rod (%) ([4]; 40 mg/kg oral + 2500 mg/kg ethanol i.p., 90 min): 60% | Animals remaining on the rotating rod (%) ([4]; 40 mg/kg oral + 2500 mg/kg ethanol i.p., 120 min): 100% | Animals remaining on the rotating rod (%) ([4]; 40 mg/kg oral, no ethanol, 60 min): 100% | Animals remaining on the rotating rod (%) ([4]; 40 mg/kg oral, no ethanol, 90 min): 100% | Animals remaining on the rotating rod (%) ([4]; 40 mg/kg oral, no ethanol, 120 min): 100%

N[C@@H](CS)C(=O)O [L-cysteine, reference compound]
Ethanolic narcosis period (x ± S.E. %), related to control ([1]; 500.0 mg/kg orally): 63 ± 4.2% | Dose dependence of effect on ethanolic narcosis period ([1]; rats, oral): dose-dependent, unlike that of L-cysteine | Alcoholic intoxication, narcosis duration [5]: shortened

CC(N)(Cc1ccc(O)cc1)C(=O)O (stereo not drawn) [α-Methyl-para-tyrosine]
Spontaneous locomotoric activity ([6]; same dose range): decreases the spontaneous locomotoric activity | Ethanolic locomotoric hyperactivity [6]: normalizes the ethanolic locomotoric hyperactivity
